{"source": "patent US20230241167A1", "about": "“Use of Caveolin-1 Scaffolding Domain Peptides for Treating Disease and Disorders” (MUSC Foundation for Research Development, priority 2020, published 2023)", "key": {"[1]": {"tested_on": "aged mice (18-month old), brain tissue", "experiment": "Aging-associated pathological changes in the brain of aged mice", "type": "in vivo", "settings": "18-month old mice; CSD injections for four weeks; Western blot", "method": "FIG. 16 provides an overview of an experiment using CSD (SEQ ID NO: 1). It is similar to the experiment described in FIG. 9 except that the readouts were performed on brain tissue rather than heart and kidney tissue.\nMice were treated as described in FIG. 10, except that CSD injections were for four weeks. Brain tissue extracts were analyzed by Western blot for microvascular leakage and fibrosis (FIG. 17) and for tyrosine kinase activation (FIG. 18). In the quantifications (n=3), significant changes are shown as ***p<0.001 and **p<0.01 between young and aged mice and ^^^p<0.001 and ^^p<0.01 for decreases in aged mice due to CSD treatment."}, "[2]": {"tested_on": "fibrosis in lung, skin, and heart", "settings": "literature; cited from earlier work"}, "[3]": {"tested_on": "Bone marrow (BM) monocytes", "experiment": "Migration of bone marrow monocytes from bleomycin-treated mice treated in vivo", "settings": "mice treated in vivo prior to harvesting the monocytes", "description": "Recruitment of activated monocytes into damaged lung tissue contributes to the progression of fibrosis and is suppressed in vivo by CSD (FIG. 22). Bone marrow (BM) monocytes were isolated from control and bleomycin-treated mice."}, "[4]": {"tested_on": "aged C57/Bl6 mice (18 months)", "experiment": "Aging-associated pathological changes in heart and kidney of aged mice", "type": "in vivo", "method": "The function of various organs in the elderly goes downhill progressively. This is in part due to increases in fibrosis and microvascular leakage. The experiments presented in this Example have examined these progressive processes in mice.\nYoung C57/Bl6 mice (3 months), middle-aged C57/Bl6 mice (9 months), and aged C57/Bl6 mice (18 months) were injected daily i.p. for six weeks with saline vehicle or CSD. IgG heavy chain leakage and Col I accumulation were evaluated by Western blots of heart (FIG. 10) and kidney tissue (FIG. 11). Actin was the loading control. Two to three mice per category are shown. In the quantifications (n=4), significant changes are shown as ***p<0.001 between young and aged mice and ^^^p<0.001 for decreases in aged mice treated with CSD. In FIG. 12, representative examples of picrosirius red staining of heart and kidney tissue sections from the indicated mice are shown. The data were quantified (n=3) as in terms of Collagen Volume Fraction. Significant changes are shown as ***p<0.001 and **p<0.01 between young and aged mice and ^p<0.05 for decreases in aged mice treated with CSD.\nThe same extracts used in FIG. 10 and FIG. 11 were analyzed by Western Blot for tyrosine kinase activation using antibodies specific for phosphorylated tyrosine residues in PDGFR (α-Y849/β-Y857), c-Src Y426, and Pyk2 Y402. Actin was the loading control. In the quantifications, significant changes are shown as ***p<0.001 and **p<0.01 between young and aged mice and ^^^p<0.001 and ^^p<0.01 for decreases in Aged mice treated with CSD.\nEchocardiographic analyses were performed on the same mice used in FIG. 10 and FIG. 11 prior to their sacrifice. M-mode echo measurements in parasternal short-axis (PSAX) view were used to quantify changes in EF and FS. Tissue Doppler measurements in PSAX were used to measure IVRT. Values are shown as Mean±SEM. Statistically significant changes are shown as ***p<0.001 between young and aged mice and ^p<0.05 for improved functions in aged mice due to CSD treatment (FIG. 14).\nLeft ventricle tissue sections from the same mice used in FIG. 10 were stained with hematoxylin-eosin and cardiomyocyte cross-sectional area was quantified by measuring at least 50 cardiomyocytes for each group (n=3) using SigmaScan Pro image analysis. Statistical significance is shown as ***p<0.001 between young and aged mice and ^p<0.05 for decreased hypertrophy in aged mice due to CSD treatment (FIG. 15)."}, "[5]": {"tested_on": "aged C57/Bl6 mice (18 months)", "experiment": "Aging-associated pathological changes in heart and kidney of aged mice", "type": "in vivo", "settings": "echocardiography"}, "Ang II-infused mice": {"tested_on": "Ang II-infused mice", "experiment": "Angiotensin II-induced congestive heart failure (CHF) model", "type": "in vivo", "settings": "daily i.p. injections", "method": "FIG. 1 provides an overview of an experiment using Full-Length CSD, 82-89, 88-95, and 94-101 (SEQ ID NO:1, SEQ ID NO:2, SEQ ID NO:3, and SEQ ID NO:4 respectively).\nYoung mice (3 months old) infused with Ang II or vehicle for two weeks received daily i.p. injections of CSD, the indicated subdomains or scrambled CSD (0.8 μmol/kg). Mice were evaluated by Echocardiography for changes in posterior wall thickness (pWTh), fractional shortening (FS), cardiac output (CO), ejection fraction (EF), and isovolumic relaxation time (IVRT). Significant changes are shown as ***p<0.001 for Sham+Veh vs AngII+Veh. Significant suppression of AngII-induced changes is shown as ^p<0.05, ^^p<0.01, and ^^^p<0.001 for AngII+Veh vs AngII+CSD or AngII+CSD subdomains. The number of mice used in each treatment are shown in the HW/BW data.\nYoung mice (3 months old) infused with Ang II or vehicle for two weeks received daily i.p. injections of the indicated subdomains of CSD. The results of a typical experiment for Col I and HSP47 (FIG. 4) and for microvascular leakage (FIG. 5) are shown in Western blots (2 to 3 mice per group). The data are quantified below (n=4). Significant changes are shown as *p<0.05 and **p<0.01 for Sham+Veh vs Ang II+Veh. Significant suppression of Ang II-induced changes by subdomains are shown as ^p<0.05, […], and ^^^p<0.001 for Ang II+Veh vs Ang II+CSD subdomains.\nYoung mice (3 months old) infused with Ang II or vehicle for two weeks received daily i.p. injections of W82-89. IgG heavy chain (IgGH) leakage and Col I accumulation are shown in Western blots. The actin loading control is present twice because IgGH was analyzed in the supernatant fraction of heart homogenate while Col I is found in the pellet fraction. In the quantitation (n=4), significant changes are shown as **p<0.01 and ***p<0.001 for Sham+Veh vs Ang II+Veh and ^^p<0.01 and ^^^p<0.001 for reversal of AngII-induced changes by W82-89."}, "bleomycin-treated mice": {"tested_on": "bleomycin-treated mice", "experiment": "Bleomycin-induced lung and skin fibrosis, treatments delivered by pump", "type": "in vivo", "method": "Experiments were conducted to examine the effect of unmodified CSD subdomains on lung and skin fibrosis. […] Pumps containing bleomycin or saline vehicle were implanted subcutaneously into mice. After one week, the pumps had emptied and were replaced with pumps designed to empty over two weeks containing the indicated treatments (n=6 per group). After these two weeks, the mice were sacrificed.\nSkin in the vicinity of the pump outlet was harvested for measurement of the thickness of the dermis and the intradermal fat. ^^^p<0.001 for Saline/Vehicle vs Bleo/Vehicle. ***p<0.001, **p<0.01, *p<0.05 for Bleo/Vehicle vs Bleo/Peptide Treatments."}, "[6]": {"settings": "18-month old mice, daily i.p. six weeks, Western blot"}, "[7]": {"settings": "aged mice, Western blot for phosphorylated tyrosine residues"}, "[8]": {"settings": "skin in the vicinity of the pump outlet"}}, "note": "Ends that are not written are not given here."}
{"substance": "caveolin-1 scaffolding domain peptide (DGIWKASFTTFTVTKYWFYR-NH2) [CSD, amino acids 82-101 of caveolin-1]", "values": [{"measurement": "level of activated tyrosine kinases in the brain", "setting": "[1]", "value": "decreases these levels almost to the levels observed in healthy 3-month old mice"}, {"measurement": "level of fibrosis in the brain", "setting": "[1]", "value": "decreases these levels almost to the levels observed in healthy 3-month old mice"}, {"measurement": "level of microvascular leakage in the brain", "setting": "[1]", "value": "decreases these levels almost to the levels observed in healthy 3-month old mice"}, {"measurement": "inhibition of fibrosis in vivo", "setting": "[2]", "value": "inhibits fibrosis in vivo in lung, skin, and heart"}, {"measurement": "enhanced migration of BM monocytes from bleomycin-treated mice", "setting": "[3]", "value": "suppression"}, {"measurement": "level of fibrosis (Col I accumulation) in the heart", "setting": "[4]; [6]", "value": "reverses the levels of fibrosis and microvascular leakage almost to the level observed in 3-month old mice"}, {"measurement": "level of fibrosis (Col I accumulation) in the kidney", "setting": "[4]; [6]", "value": "reverses the levels of fibrosis and microvascular leakage almost to the level observed in 3-month old mice"}, {"measurement": "level of microvascular leakage (IgG heavy chain) in the heart", "setting": "[4]; [6]", "value": "reverses the levels of fibrosis and microvascular leakage almost to the level observed in 3-month old mice"}, {"measurement": "level of microvascular leakage (IgG heavy chain) in the kidney", "setting": "[4]; [6]", "value": "reverses the levels of fibrosis and microvascular leakage almost to the level observed in 3-month old mice"}, {"measurement": "picrosirius red staining (collagen volume fraction), heart", "setting": "[4]; aged mice, heart tissue sections", "value": "significantly reduced"}, {"measurement": "picrosirius red staining (collagen volume fraction), kidney", "setting": "[4]; aged mice, kidney tissue sections", "value": "significantly reduced"}, {"measurement": "aging-associated activation of tyrosine kinases PDGFR, c-Src and Pyk2, heart", "setting": "[4]; [7]", "value": "almost completely reversed"}, {"measurement": "aging-associated activation of tyrosine kinases PDGFR, c-Src and Pyk2, kidney", "setting": "[4]; [7]", "value": "almost completely reversed"}, {"measurement": "IVRT (prolonged ventricular relaxation time caused by aging)", "setting": "[4]; aged mice, echocardiography", "value": "resolved by CSD treatment"}, {"measurement": "cardiomyocyte hypertrophy (cross-sectional area)", "setting": "[4]; aged mice, left ventricle sections", "value": "reversed"}, {"measurement": "FS and SV (ventricular function)", "setting": "[5]", "value": "positive effect"}, {"measurement": "suppression of the effects of AngII on Heart Weight/Body Weight (HW/BW) ratio", "setting": "Ang II-infused mice; young mice (3 months) infused with Ang II two weeks", "value": "suppress"}, {"measurement": "suppression of the effects of AngII on Ejection Fraction (EF), Fractional Shortening (FS), Isovolumic Relaxation Time (IVRT)", "setting": "Ang II-infused mice; young mice infused with Ang II two weeks, echocardiography", "value": "suppress"}, {"measurement": "dermal fibrosis (thickness of the dermis)", "setting": "bleomycin-treated mice; [8]", "value": "suppression"}, {"measurement": "loss of intradermal fat", "setting": "bleomycin-treated mice; [8]", "value": "suppression"}, {"measurement": "bleomycin-induced lung fibrosis (Ashcroft score)", "setting": "bleomycin-treated mice; treatment by pump over two weeks after one week bleomycin, n=6", "value": "suppression"}]}
